Measured values: ChEMBL document CHEMBL1201862, “PubChem BioAssay data set” (2004)
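In this assay, cells in 96-well plates receive the compound at five concentrations for 48 hours. Endpoints are linearly interpolated between the surrounding concentrations. GI50: concentration for 50% inhibition of growth.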 The source made the active and inactive calls. Rule as the data show it: active = GI50 up to about 1.1 µM and inactive = higher.

Key:
Assay in all cases: growth of human tumour cells (NCI), 48 h
[1] = test system: SF-295
[2] = test system: LXFL 529
[3] = test system: HOP-62
[4] = test system: OVCAR-3
[5] = test system: RXF 393
[6] = test system: M19-MEL
[7] = test system: HL-60
[8] = test system: HCT-15
[9] = test system: SF-268
[10] = test system: 786-0
[11] = test system: UACC-62
[12] = test system: U-251
[13] = test system: A549
[14] = test system: SNB-19
[15] = test system: NCI-H460
[16] = test system: MOLT-4
[17] = test system: RPMI-8226
[18] = test system: TK-10
[19] = test system: HCC 2998
[20] = test system: CCRF-CEM
[21] = test system: OVCAR-4
[22] = test system: M14
[23] = test system: SK-MEL-28
[24] = test system: OVCAR-5
[25] = test system: HOP-18
[26] = test system: EKVX
[27] = test system: UACC-257
[28] = test system: NCI-H23
[29] = test system: LOX IMVI
[30] = test system: OVCAR-8
[31] = test system: DLD-1
[32] = test system: SW-620
[33] = test system: UO-31
[34] = test system: SF-539
[35] = test system: NCI-H522
[36] = test system: HT-29
[37] = test system: ACHN
[38] = test system: SNB-78
[39] = test system: NCI-H226
[40] = test system: SN12C
[41] = test system: SNB-75
[42] = test system: IGROV-1
[43] = test system: KM-20L2
[44] = test system: SK-OV-3
[45] = test system: Malme-3M
[46] = test system: RXF 631
[47] = test system: XF498
[48] = test system: K562
[49] = test system: KM12
[50] = test system: COLO 205
[51] = test system: HCT-116
[52] = test system: A498
[53] = test system: DMS-114
[54] = test system: SK-MEL-2
[55] = test system: SK-MEL-5
[56] = test system: DMS-273
[57] = test system: SR
[58] = test system: CAKI-1
[59] = test system: HOP-92

With `O=C1C=CC2(CCC23C=CC(=O)O3)O1` (centres undefined) the GI50 [1] was > 100 µM (inactive), the GI50 [2] was 81.3 µM (inactive) and the GI50 [3] was > 100 µM (inactive). For the same compound, the GI50 [4] was > 100 µM (inactive), the GI50 [5] was > 100 µM (inactive) and the GI50 [6] was > 100 µM (inactive). The GI50 [7] was 74.8 µM (inactive), the GI50 [8] was > 100 µM and the GI50 [9] was > 100 µM (inactive). For the same compound, the GI50 [10] was > 100 µM (inactive), the GI50 [11] was > 100 µM (inactive) and the GI50 [12] was > 100 µM (inactive). For the same compound, the GI50 [13] was > 100 µM (inactive), the GI50 [14] was > 100 µM (inactive) and the GI50 [15] was > 100 µM (inactive). The GI50 [16] was > 100 µM (inactive), the GI50 [17] was > 100 µM (inactive) and the GI50 [18] was > 100 µM (inactive). For the same compound, the GI50 [19] was > 100 µM (inactive), the GI50 [20] was 86.5 µM (inactive) and the GI50 [21] was > 100 µM (inactive). The GI50 [22] was > 100 µM (inactive), the GI50 [23] was > 100 µM (inactive) and the GI50 [24] was > 100 µM (inactive). The GI50 [25] was > 100 µM (inactive), the GI50 [26] was > 100 µM (inactive) and the GI50 [27] was > 100 µM (inactive). For the same compound, the GI50 [28] was > 100 µM (inactive), the GI50 [29] was > 100 µM (inactive) and the GI50 [30] was > 100 µM (inactive). The GI50 [31] was > 100 µM (inactive), the GI50 [32] was 94.6 µM (inactive) and the GI50 [33] was > 100 µM (inactive). For the same compound, the GI50 [34] was > 100 µM (inactive), the GI50 [35] was 51.6 µM (inactive) and the GI50 [36] was > 100 µM (inactive). The GI50 [37] was > 100 µM (inactive), the GI50 [38] was > 100 µM (inactive) and the GI50 [39] was > 100 µM (inactive). For the same compound, the GI50 [40] was > 100 µM (inactive), the GI50 [41] was > 100 µM (inactive) and the GI50 [42] was > 100 µM (inactive). The GI50 [43] was > 100 µM (inactive), the GI50 [44] was > 100 µM (inactive) and the GI50 [45] was > 100 µM (inactive). The GI50 [46] was 71 µM (inactive), the GI50 [47] was > 100 µM (inactive) and the GI50 [48] was > 100 µM (inactive). For the same compound, the GI50 [49] was > 100 µM (inactive), the GI50 [50] was > 100 µM (inactive) and the GI50 [51] was > 100 µM (inactive). For the same compound, the GI50 [52] was > 100 µM (inactive), the GI50 [53] was > 100 µM (inactive) and the GI50 [54] was > 100 µM (inactive).

In the case of `COc1ccc2cccc(C(=N)c3ccc(C)c4c3CCC4)c2c1`, the GI50 [1] is reported as 5.7 µM (inactive), the GI50 [2] is reported as 4.86 µM (inactive) and the GI50 [3] is reported as 7.26 µM (inactive). For the same compound, the GI50 [4] was 3.52 µM (inactive), the GI50 [5] was 12.8 µM (inactive) and the GI50 [6] was 9.62 µM (inactive). The GI50 [7] was 2.67 µM (inactive), the GI50 [8] was 7.46 µM and the GI50 [9] was 16.4 µM (inactive). The GI50 [10] was 10.2 µM (inactive), the GI50 [11] was 4.18 µM (inactive) and the GI50 [12] was 9.57 µM (inactive). For the same compound, the GI50 [13] was 13.7 µM (inactive), the GI50 [14] was 11.2 µM (inactive) and the GI50 [15] was 4.3 µM (inactive). For the same compound, the GI50 [16] was 8.63 µM (inactive), the GI50 [18] was 11.6 µM (inactive) and the GI50 [19] was 10.8 µM (inactive). For the same compound, the GI50 [55] was 3.9 µM (inactive), the GI50 [20] was 6.58 µM (inactive) and the GI50 [21] was 12.2 µM (inactive). For the same compound, the GI50 [22] was 5.97 µM (inactive), the GI50 [23] was 13 µM (inactive) and the GI50 [24] was 6.17 µM (inactive). The GI50 [56] was 9.4 µM (inactive), the GI50 [25] was 0.895 µM (active) and the GI50 [26] was 15.5 µM (inactive). For the same compound, the GI50 [27] was 4.89 µM (inactive), the GI50 [28] was 7.57 µM (inactive) and the GI50 [29] was 11.7 µM (inactive). The GI50 [30] was 11.4 µM (inactive), the GI50 [32] was 5.38 µM (inactive) and the GI50 [33] was 4.45 µM (inactive). For the same compound, the GI50 [35] was 3.72 µM (inactive), the GI50 [36] was 4.02 µM (inactive) and the GI50 [37] was 9.98 µM (inactive). The GI50 [39] was 12.2 µM (inactive), the GI50 [40] was 12 µM (inactive) and the GI50 [57] was 2.62 µM (inactive). The GI50 [41] was 11.8 µM (inactive), the GI50 [42] was 6.15 µM (inactive) and the GI50 [43] was 5.82 µM (inactive). For the same compound, the GI50 [44] was 14.5 µM (inactive), the GI50 [45] was 3.62 µM (inactive) and the GI50 [46] was 1.37 µM (inactive). The GI50 [48] was 2.92 µM (inactive), the GI50 [49] was 10.2 µM (inactive) and the GI50 [50] was 11.9 µM (inactive). For the same compound, the GI50 [51] was 4.59 µM (inactive), the GI50 [52] was 2.14 µM (inactive) and the GI50 [53] was 7.08 µM (inactive). For the same compound, the GI50 [58] was 3.95 µM (inactive) and the GI50 [54] was 11.9 µM (inactive).

`COC(=O)C1=C(C(=O)OC)C(C(=O)OC)C(C(=O)OC)=C1C(=O)OC` was tested, and the GI50 [1] was > 100 µM (inactive), the GI50 [2] was > 100 µM (inactive) and the GI50 [3] was > 100 µM (inactive). For the same compound, the GI50 [4] was > 100 µM (inactive), the GI50 [5] was > 100 µM (inactive) and the GI50 [7] was > 100 µM (inactive). The GI50 [8] was > 100 µM, the GI50 [9] was > 100 µM (inactive) and the GI50 [10] was > 100 µM (inactive). For the same compound, the GI50 [59] was > 100 µM (inactive), the GI50 [11] was > 100 µM (inactive) and the GI50 [12] was > 100 µM (inactive). The GI50 [13] was > 100 µM (inactive), the GI50 [14] was > 100 µM (inactive) and the GI50 [15] was > 100 µM (inactive). For the same compound, the GI50 [16] was > 100 µM (inactive), the GI50 [17] was > 100 µM (inactive) and the GI50 [18] was > 100 µM (inactive). The GI50 [19] was > 100 µM (inactive), the GI50 [55] was > 100 µM (inactive) and the GI50 [20] was > 100 µM (inactive). For the same compound, the GI50 [21] was > 100 µM (inactive), the GI50 [22] was > 100 µM (inactive) and the GI50 [23] was > 100 µM (inactive). For the same compound, the GI50 [24] was > 100 µM (inactive), the GI50 [56] was > 100 µM (inactive) and the GI50 [25] was > 100 µM (inactive). For the same compound, the GI50 [26] was > 100 µM (inactive), the GI50 [27] was > 100 µM (inactive) and the GI50 [28] was > 100 µM (inactive). The GI50 [29] was > 100 µM (inactive), the GI50 [30] was > 100 µM (inactive) and the GI50 [31] was > 100 µM (inactive). For the same compound, the GI50 [32] was > 100 µM (inactive), the GI50 [33] was > 100 µM (inactive) and the GI50 [34] was > 100 µM (inactive). The GI50 [35] was > 100 µM (inactive), the GI50 [36] was > 100 µM (inactive) and the GI50 [37] was > 100 µM (inactive). For the same compound, the GI50 [40] was > 100 µM (inactive), the GI50 [41] was > 100 µM (inactive) and the GI50 [42] was > 100 µM (inactive). For the same compound, the GI50 [43] was > 100 µM (inactive), the GI50 [44] was > 100 µM (inactive) and the GI50 [45] was > 100 µM (inactive). For the same compound, the GI50 [46] was > 100 µM (inactive), the GI50 [48] was > 100 µM (inactive) and the GI50 [49] was > 100 µM (inactive). For the same compound, the GI50 [50] was > 100 µM (inactive), the GI50 [53] was > 100 µM (inactive) and the GI50 [58] was > 100 µM (inactive). The GI50 [54] was > 100 µM (inactive).
